Laboratory results from US20220187282A1, “CARDIOMYOCYTE PROLIFERATION” (The Council of the Queensland Institute of Medical Research, priority 2019, published 2022).

Columns and labels:
Type in all cases: cell-based, human
hPSC-CMs = experiment: 2D high-content primary screen, DNA synthesis (EdU) in hPSC-CM; conditions: for 2D Screen Max Effect (%): maximum over 0.1, 1, 10 uM
Description: (§1) The compound library included 5,000 biologically annotated pre-clinical, clinical, and tool compounds. They were selected based on a combination of criteria including balancing the number of external/internal compounds, diversity of annotated targets to cover greater than 1500 biological targets, and known targets associated with cell proliferation. […] Both negative vehicle (DMSO) and positive (CHIR99021) controls were included on each plate in each experiment (FIG. 2B,C).

immature hCOs = experiment: immature hCO screen, Ki-67 intensity (proliferation); conditions: for proliferation in immature hCO (Ki-67 intensity): 0.1, 1 and 10 μM, 2 days; for hCO Screen Max Effect (%): maximum over 0.1, 1, 10 uM
Protocol: Heart-dyno culture inserts were fabricated using standard SU-8 photolithography and PDMS molding practices (Mills et al., 2017a). CTRL medium: α-MEM GlutaMAX (ThermoFisher Scientific), 10% fetal bovine serum (FBS) (ThermoFisher Scientific), 200 μM L-ascorbic acid 2-phosphate sesquimagnesium salt hydrate (Sigma) and 1% Penicillin/Streptomycin (ThermoFisher Scientific). For each hCO, 5×10^4 cardiac cells in CTRL medium were mixed with collagen I to make a 3.5 μL final solution containing 2.6 mg/mL collagen I and 9% Matrigel. The bovine acid-solubilized collagen I (Devro) was first salt balanced and pH neutralized using 10×DMEM and 0.1 M NaOH, respectively, prior to mixing with Matrigel and cells. The mixture was prepared on ice and pipetted into the Heart-Dyno. The Heart-Dyno was then centrifuged at 100×g for 10 s to ensure the hCO form halfway up the posts. The mixture was then gelled at 37° C. for 60 min prior to the addition of CTRL medium to cover the tissues (150 μL/hCO). The Heart-Dyno design facilitates the self-formation of tissues around in-built PDMS exercise poles (designed to deform ˜0.07 μm/μN). The medium was changed every 2-3 days (150 μL/hCO).
hCOs were cultured in CTRL medium for formation for 5 days and then either kept in CTRL medium culture or changed to maturation medium (Mills et al., 2017a) comprising DMEM without glucose, glutamine and phenol red (ThermoFisher Scientific) supplemented with 4% […](without insulin) (ThermoFisher Scientific), 1% GlutaMAX (ThermoFisher Scientific), 200 μM L-ascorbic acid 2-phosphate sesquimagnesium salt hydrate and 1% Penicillin/Streptomycin (ThermoFisher Scientific), 1 mmol/L glucose and 100 μmon palmitic acid (conjugated to bovine serum albumin within B27 by incubating for 2h at 37° C., Sigma) with changes every 2-3 days.
Whole-Mount Immunostaining hCOs were fixed for 60 min with 1% paraformaldehyde (Sigma) at room temperature and washed 3× with PBS, after which they were incubated with primary antibodies (see Star Methods Table) in Blocking Buffer, 5% FBS and 0.2% Triton-X-100 (Sigma) in PBS overnight at 4° C. Cells were then washed in Blocking Buffer 2× for 2 h and subsequently incubated with secondary antibodies (see Star Methods Table) and Hoechst33342 (1:1000) overnight at 4° C. They were washed in Blocking Buffer 2× for 2 h and imaged in situ or mounted on microscope slides using Fluoromount-G (Southern Biotech).
For screening hCOs were imaged using a Leica DMi8 high content imaging microscope for in situ imaging. Custom batch processing files were written in Matlab R2013a (Mathworks) to remove the background, calculate the image intensity, and export the batch data to an Excel (Microsoft) spreadsheet.
as §1

mature hCOs = experiment: mature hCO, cardiomyocyte number, hCO size, bi-nucleation, cardiomyocyte size; conditions: for cardiomyocyte number / bi-nucleation / hCO size (α-actinin area): 3 μM compound 3 or 1 μM compound 65; for bi-nucleation: 4 days; for hCO size (α-actinin area): 7 days
Protocol: For more detailed images an Olympus IX81 confocal microscope was used for mounted hCO imaging. For cell cycle analysis experiments 3 random fields of view were imaged and manually quantified for proliferation. These were added together to calculate the percentage of hPSC-CM proliferation in each hCO.
Cells were dissociated by washing in perfusion buffer at 37° C. (130 mM NaCl, 1 mM MgCl2, 5 mM KCl, 0.5 mM NaH2PO4, 10 mM HEPES, 10 mM Taurine, 10 mM glucose, 10 μM 2,3-butanedione monoxime, pH 7.4). hCO were then incubated in EDTA buffer at 37° C. for 5 min (130 mM NaCl, 5 mM KCl, 0.5 mM NaH2PO4, 10 mM HEPES, 10 mM Taurine, 10 mM glucose, 5 mM EDTA, 10 μM 2,3-butanedione monoxime, pH 7.4). hCO were washed in perfusion buffer and then incubated in perfusion buffer plus 1 mg/ml collagenase B (Roche) for 15 min at 37° C. on a shaker at 500 rpm. Equivolume 0.25% trypsin-EDTA (ThermoFisher) was then added and the hCOs were incubated for 10 min at 37° C. on a shaker at 500 rpm. Perfusion buffer with 5% FBS was then added and the single cells pelleted by centrifuging at 1000×g for 3 min. The cells were then resuspended in 1% para-formaldehyde and incubated for 5 min at room temperature. hCO were then centrifuged at 1000×g for 3 min, paraformaldehyde removed, suspended in PBS and counted using a haemocytometer.
Hits were next validated in mature hCOs using a targeted concentration range based on their active concentrations in the initial immature hCO screen (FIG. 3A). Proliferation markers were quantified using high magnification confocal imaging as we found flow cytometry to be inaccurate in hCO (data not shown). Compounds 3, 63 and 65 had no impact on contractile force (FIG. 3B) at concentrations of 3 μM, 0.3 μM and 1 μM, respectively. […] The effects of both compound 3 and compound 65 were reversible, with proliferation ceasing within 5 days of compound withdrawal (FIG. 8B). Therefore, compound 3 (FIG. 3G) and compound 65 (Goldberg et al., 2009) (FIG. 3H) are both capable of inducing bona fide cardiomyocyte proliferation in mature hCOs without adversely affecting contractile properties.

Row | Structure (SMILES) | 2D Screen (AZ) 0.1 uM Prolif Activation EdU (%) (hPSC-CMs) | 2D Screen (AZ) 1 uM Prolif Activation EdU (%) (hPSC-CMs) | 2D Screen (AZ) 10 uM Prolif Activation EdU (%) (hPSC-CMs) | 2D Screen Max Effect (%) (hPSC-CMs) | hCO Screen 0.1 uM Prolif Activation Ki-67 (%) (immature hCOs) | hCO Screen 1 uM Prolif Activation Ki-67 (%) (immature hCOs) | hCO Screen 10 uM Prolif Activation Ki-67 (%) (immature hCOs) | proliferation in immature hCO (Ki-67 intensity) (immature hCOs) | hCO Screen Max Effect (%) (immature hCOs) | cardiomyocyte size with 10 μM simvastatin (mature hCOs; 3 μM compound 3, 2 days) | cardiomyocyte number (mature hCOs) | cardiomyocyte size (mature hCOs; 3 μM, 2 days) | bi-nucleation (mature hCOs) | hCO size (α-actinin area) (mature hCOs) | cardiomyocyte size (mature hCOs; compound 3 or compound 65) | cardiomyocyte size, combined with 10 μM simvastatin (mature hCOs; 1 μM, 2 days)
1 | Cc1ccc(NC(=O)c2ccnc(N3CCOCC3)c2)cc1Nc1ccnc(N2CC(C)OC(C)C2)n1 (centres unmarked) [compound 3] | −6 | 35 | 183 | 183 | 299 | 23 | 111 | induced proliferation | 299 | without significant changes | increase | decreases | without an increase | increase | without an increase | 
2 | Cc1cc(Oc2ccnc(Nc3ccc(S(N)(=O)=O)cc3)c2)c(-c2ccccn2)nc1C [compound 65] | 48 | 76 | 171 | 171 | −38 | 96 | 121 | induced proliferation | 121 |  | increase |  | without an increase | increase | without an increase | increased
